# Experimental data: US9512086B2, “Compound for promoting apoptosis of cancer cells and a pharmaceutical composition containing the same and uses thereof” (National Chiao Tung University, priority 2014, dated 2016)
# Key:
# survivin [1] = test: Western blot of survivin protein expression in A549 cells; conditions: 0 to 40 μM, 24 hours
# Experimental: (§3) The protease inhibitors including 1 μg/ml aprotinin, 0.5 μg/ml leupeptin, and 100 μg/ml 4-(2-aminoethyl)benzenesulfonyl fluoride were added to the cell suspensions. The lysates were vibrated for 30 minutes at 4° C. and centrifuged at 10,000 rpm for 10 minutes. The protein concentrations were determined by the BCA protein assay kit (Pierce, Rockford, Ill.). […] The membranes were blocked overnight at 4° C. using blocking buffer (5% non-fat dried milk in solution containing 50 mM Tris/HCl (pH 8.0), 2 mM CaCl2, 80 mM NaCl, 0.05% Tween 20 and 0.02% sodium azide). The membranes were sequentially hybridized with primary antibody and followed with a horseradish peroxidase-conjugated secondary antibody. The protein bands were visualized on the X-ray film using the enhanced chemiluminescence detection system (PerkinElmer Life and Analytical Sciences, Boston, Mass.). […] To verify equal protein loading and transfer, actin was used as the protein loading control. The gel digitizing software, Un-Scan-It gel (Ver. 5.1, Silk Scientific, Inc., Orem, Utah), was used to analyze the intensity of protein bands on X-ray film.
# (§4) A549 cells were plated at a density of 1×10^6 cells per 60-mm Petri dish in complete medium for 16 to 20 hours. […] To verify equal protein loading and transfer, actin was used as the protein loading control.
# MARK2 (PAR-1Ba) = biological target: T1, MARK2 (PAR-1Ba) (Homo sapiens, UniProt Q7KZI7); test: KinaseProfiler assay, MARK2; format: biochemical; conditions: read-out: KAR value (kinase activity remaining)
# T1 construct: purchased Merck Millipore (KinaseProfiler service)
# Text: (§1) The kinase activity remaining (KAR) value is […] related to kinase activity. […]
# A549 cells [2] = test: Cell cycle analysis, PI staining and flow cytometry; format: cell-based, human; conditions: 40 μM, 24 hours, 60.5% before treatment
# Experimental: After the treatment, the cells were collected and fixed with ice-cold 70% ethanol overnight at −20° C. After centrifugation at 1500 rpm for 5 minutes, the pellets were treated with 4 μg/ml PI solution containing 1% Triton X-100 and 50 μg/ml RNase at 37 °C for 30 minutes in the dark. To avoid cell aggregation, the cell solutions were filtrated through nylon membrane (Becton-Dickinson, San Jose, Calif.). Subsequently, the samples were analyzed by flow cytometry. For each measurement, 10,000 cells were analyzed for DNA content. The percentage of cell cycle phases was quantified by ModFit LT software (Ver. 2.0, Becton-Dickinson).
# [3] = biological target: T2, MKNK2 (MAPK-interacting kinase-2) (Homo sapiens, UniProt Q9HBH9); test: KinaseProfiler assay, MKNK2; format: biochemical; conditions: read-out: KAR value (kinase activity remaining)
# T2 construct: purchased Merck Millipore (KinaseProfiler service)
# Text: as §1
# [4] = biological target: T3, RET (product of ret proto-oncogene) (Homo sapiens, UniProt P07949); test: KinaseProfiler assay, RET; format: biochemical; conditions: read-out: KAR value (kinase activity remaining)
# T3 construct: purchased Merck Millipore (KinaseProfiler service)
# Text: as §1
# [5] = biological target: T4, STK10 (lymphocyte-oriented kinase) (Homo sapiens, UniProt O94804); test: KinaseProfiler assay, STK10; format: biochemical; conditions: read-out: KAR value (kinase activity remaining)
# T4 construct: purchased Merck Millipore (KinaseProfiler service)
# Text: as §1
# caspase 3 = test: Western blot of active caspase 3 in A549 cells; conditions: 10-40 μM, 24 hours
# Experimental: as §3, §4
# [6] = biological target: T5, SYK (splenic tyrosine kinase) (Homo sapiens, UniProt P43405); test: KinaseProfiler assay, SYK; format: biochemical; conditions: read-out: KAR value (kinase activity remaining)
# T5 construct: purchased Merck Millipore (KinaseProfiler service)
# Text: as §1
# A549 cells [7] = test: Cell growth, cell number by hemocytometer; format: cell-based, human; conditions: 30 μM for 24 hours, then cultured 2-6 days
# Experimental: The cells were washed with PBS after the treatment. […] The cell number was calculated with hemocytometer.
# A549 cell line = test: MTT cell viability, A549 cell line; format: cell-based, human; conditions: Homo sapiens, A549 cell line, 24 hours, MTT
# Experimental: The above cell lines were plated in 96-well plates at a density of 1×10^4 cells/well for 16 to 20 hours. […] After drug treatment, the cell lines were washed with phosphate-buffered saline (hereinafter referred to PBS), and were replaced with fresh complete RPMI-1640 medium for 2 days. Thereafter, the medium was replaced and the cells were incubated with 0.5 mg/ml of 3-(4,5-dimethylthiazol-2-yl)-2,5-diphenyltetrazolium bromide reagent (hereinafter referred to MTT, Sigma Chemical Co., St. Louis, Mo.) in complete RPMI-1640 medium for 4 hours. The viable cells converted MTT to formazan that generates a blue-purple color when dissolved in dimethyl sulfoxide (hereinafter referred to DMSO). The intensity of formazan was measured at 565 nm using a plate reader (VERSAmax, Molecular Dynamics, Sunnyvale, Calif.). The relative percentage of cell viability was calculated by dividing the absorbance of treated cells by that of the control in each experiment.
# (§2) After drug treatment, the cells were washed with PBS and replaced with fresh complete RPMI-1640 medium for 2 days. Thereafter, the medium was replaced and the cells were incubated with 0.5 mg/mL of MTT reagent (Sigma Chemical Co., St. Louis, Mo.) in complete RPMI-1640 medium for 4 hours. The intensity of formazan was measured at 565 nm using a plate reader (VERSAmax, Molecular Dynamics, Sunnyvale, Calif.). The relative percentage of cell viability was calculated by dividing the absorbance of treated cells by that of the control in each experiment.
# [8] = biological target: T6, MAPK14 (stress-activated protein kinase-2a) (Homo sapiens, UniProt Q16539); test: KinaseProfiler assay, MAPK14; format: biochemical; conditions: read-out: KAR value (kinase activity remaining)
# T6 construct: purchased Merck Millipore (KinaseProfiler service)
# Text: as §1
# [9] = biological target: T7, CSNK2A1 (casein kinase-2) (Homo sapiens, UniProt P68400); test: KinaseProfiler assay, CSNK2A1; format: biochemical; conditions: read-out: KAR value (kinase activity remaining)
# T7 construct: purchased Merck Millipore (KinaseProfiler service)
# Text: as §1
# PARP = test: Western blot of cleaved PARP in A549 cells; conditions: 10-40 μM, 24 hours
# Experimental: as §3, §4
# survivin [10] = test: RT-PCR of survivin gene expression in A549 cells; format: cell-based, human; conditions: 0 to 40 μM, 24 hours
# Experimental: After the treatment, total cellular RNA was purified by ZR RNA MiniPrep™ (Zymo Research, Irvine, Calif.) according to the manufacturer's protocol. RNA concentrations were determined by spectrophotometry. cDNAs were synthesized by SuperScript™ III reverse transcriptase with oligo (dT)12-18 primer (Invitrogen). Each reverse transcript was amplified with GAPDH as an internal control. Reverse transcription polymerase chain reaction (RT-PCR) was performed by a DNA thermal cycler (Mastercycler gradient, Hamburg, Germany). […] The conditions of RT-PCR are stated as followed: the initial denaturation was performed at 94° C. for 2 minutes, followed by 30 cycles at 94° C. for 30 seconds, 56° C. for 30 seconds, and 72° C. for 40 seconds; and 72° C. for 5 minutes. The PCR products were visualized on 1.2% agarose gels with ethidium bromide staining under UV transillumination, and photograph was taken by a camera DH27-S3 (Medclub, Taoyuan, Taiwan).
# [11] = MTT cell viability, HFL1 normal lung fibroblasts; format: cell-based; conditions: human, HFL1 normal lung fibroblast cells, 0 to 40 μM
# Experimental: as §2
# A549 cells [12] = test: Annexin V-PI apoptosis analysis by flow cytometry; format: cell-based, human; conditions: 10-40 μM for 24 hours
# Experimental: The Annexin V-PI staining kit (BioVision, Mountain View, Calif.) was used to exam the cells by incubating with fluorescent isothiocyanate (FITC)-conjugated-Annexin V and PI according to the manufacturer's instruction. […] The cells were cultured in 60-mm Petri dish at a density of 7×10^5 cells for 16 to 20 hours. […] The cells were trypsinized and collected by centrifugation at 1500 rpm for 5 minutes. Thereafter, the cells were incubated with 500 μl Annexin V-PI labeling solution (containing 5 μl Annexin V-FITC and 5 μl PI in PBS) at room temperature in the dark for 5 minutes. To avoid cell aggregation, the cell solutions were filtered through a nylon mesh membrane (Becton-Dickinson, San Jose, Calif.). Finally, the samples were analyzed immediately using flow cytometer (FACS Calibur, BD Biosciences, Heidelberg, Germany). The percentage of Annexin V-PI staining cells was quantified from a minimum of 10,000 cells by CellQuest software (BD Biosciences).
# [13] = biological target: T8, LIMK1 (LIM motif-containing protein kinase-1) (Homo sapiens, UniProt P53667); test: KinaseProfiler assay, LIMK1; format: biochemical; conditions: read-out: KAR value (kinase activity remaining)
# T8 construct: purchased Merck Millipore (KinaseProfiler service)
# Text: as §1
# [14] = biological target: T9, FGFR1 (fibroblast growth factor receptor-1) (Homo sapiens, UniProt P11362); test: KinaseProfiler assay, FGFR1; format: biochemical; conditions: read-out: KAR value (kinase activity remaining)
# T9 construct: purchased Merck Millipore (KinaseProfiler service)
# Text: as §1
# T1 sequence (Q7KZI7 1-725 isoform Q7KZI7-4): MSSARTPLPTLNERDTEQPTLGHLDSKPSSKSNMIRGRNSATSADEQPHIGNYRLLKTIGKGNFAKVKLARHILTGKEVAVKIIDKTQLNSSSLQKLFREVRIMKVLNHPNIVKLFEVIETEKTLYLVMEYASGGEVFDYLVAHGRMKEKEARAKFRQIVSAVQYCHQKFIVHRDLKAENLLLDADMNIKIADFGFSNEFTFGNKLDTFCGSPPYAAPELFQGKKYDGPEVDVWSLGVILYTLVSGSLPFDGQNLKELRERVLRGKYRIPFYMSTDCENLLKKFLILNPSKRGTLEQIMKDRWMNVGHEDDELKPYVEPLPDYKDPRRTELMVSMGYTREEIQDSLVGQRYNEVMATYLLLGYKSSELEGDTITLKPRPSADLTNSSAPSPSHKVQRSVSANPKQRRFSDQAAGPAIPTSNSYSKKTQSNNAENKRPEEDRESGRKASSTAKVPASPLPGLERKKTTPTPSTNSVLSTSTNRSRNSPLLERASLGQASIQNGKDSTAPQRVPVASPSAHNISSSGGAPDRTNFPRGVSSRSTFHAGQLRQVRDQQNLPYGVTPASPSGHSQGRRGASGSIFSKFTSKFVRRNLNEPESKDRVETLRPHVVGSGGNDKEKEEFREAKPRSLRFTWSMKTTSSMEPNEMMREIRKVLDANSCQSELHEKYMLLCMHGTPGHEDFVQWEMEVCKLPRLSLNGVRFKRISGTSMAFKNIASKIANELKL
# T3 sequence (P07949 29-1114): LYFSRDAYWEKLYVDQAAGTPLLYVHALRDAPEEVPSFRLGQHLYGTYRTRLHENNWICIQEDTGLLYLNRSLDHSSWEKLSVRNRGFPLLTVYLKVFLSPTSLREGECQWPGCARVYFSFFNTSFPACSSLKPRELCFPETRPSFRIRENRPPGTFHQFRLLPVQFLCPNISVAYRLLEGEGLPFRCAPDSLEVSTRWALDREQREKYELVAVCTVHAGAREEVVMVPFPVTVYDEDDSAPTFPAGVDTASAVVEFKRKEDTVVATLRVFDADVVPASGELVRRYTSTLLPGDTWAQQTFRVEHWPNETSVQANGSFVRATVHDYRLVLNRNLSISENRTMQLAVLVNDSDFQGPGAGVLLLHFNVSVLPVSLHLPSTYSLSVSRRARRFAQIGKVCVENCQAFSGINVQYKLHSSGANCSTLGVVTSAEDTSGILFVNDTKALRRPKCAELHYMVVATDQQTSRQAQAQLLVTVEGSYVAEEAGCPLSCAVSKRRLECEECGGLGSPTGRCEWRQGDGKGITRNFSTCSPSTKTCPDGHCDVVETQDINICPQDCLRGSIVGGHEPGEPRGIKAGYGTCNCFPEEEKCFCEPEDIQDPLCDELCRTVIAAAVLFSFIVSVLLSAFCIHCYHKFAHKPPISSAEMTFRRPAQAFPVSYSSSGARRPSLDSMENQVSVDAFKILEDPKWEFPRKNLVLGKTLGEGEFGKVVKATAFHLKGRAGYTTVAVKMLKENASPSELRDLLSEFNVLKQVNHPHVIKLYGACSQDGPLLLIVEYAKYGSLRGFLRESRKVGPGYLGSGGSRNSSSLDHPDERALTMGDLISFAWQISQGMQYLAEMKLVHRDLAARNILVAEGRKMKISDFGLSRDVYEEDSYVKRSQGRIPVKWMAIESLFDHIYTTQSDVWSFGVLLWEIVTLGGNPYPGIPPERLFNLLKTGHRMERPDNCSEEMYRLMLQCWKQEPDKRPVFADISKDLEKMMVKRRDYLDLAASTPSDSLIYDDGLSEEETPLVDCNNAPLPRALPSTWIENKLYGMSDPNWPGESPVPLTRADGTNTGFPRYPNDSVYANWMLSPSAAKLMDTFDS
# T2 sequence (Q9HBH9 whole entry): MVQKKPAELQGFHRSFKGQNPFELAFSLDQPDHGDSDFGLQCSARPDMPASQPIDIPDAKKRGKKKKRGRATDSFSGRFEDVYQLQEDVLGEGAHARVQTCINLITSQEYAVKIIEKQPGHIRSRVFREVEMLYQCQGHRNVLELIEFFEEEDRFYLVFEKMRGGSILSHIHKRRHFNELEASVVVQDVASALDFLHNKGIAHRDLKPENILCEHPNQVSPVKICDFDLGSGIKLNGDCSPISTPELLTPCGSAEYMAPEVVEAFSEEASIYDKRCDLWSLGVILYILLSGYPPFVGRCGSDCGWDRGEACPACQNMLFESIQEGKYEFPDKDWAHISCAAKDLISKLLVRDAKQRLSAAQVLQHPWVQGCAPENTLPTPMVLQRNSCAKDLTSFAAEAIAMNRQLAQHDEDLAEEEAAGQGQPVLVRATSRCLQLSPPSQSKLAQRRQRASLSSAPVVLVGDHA
# T4 sequence (O94804 whole entry): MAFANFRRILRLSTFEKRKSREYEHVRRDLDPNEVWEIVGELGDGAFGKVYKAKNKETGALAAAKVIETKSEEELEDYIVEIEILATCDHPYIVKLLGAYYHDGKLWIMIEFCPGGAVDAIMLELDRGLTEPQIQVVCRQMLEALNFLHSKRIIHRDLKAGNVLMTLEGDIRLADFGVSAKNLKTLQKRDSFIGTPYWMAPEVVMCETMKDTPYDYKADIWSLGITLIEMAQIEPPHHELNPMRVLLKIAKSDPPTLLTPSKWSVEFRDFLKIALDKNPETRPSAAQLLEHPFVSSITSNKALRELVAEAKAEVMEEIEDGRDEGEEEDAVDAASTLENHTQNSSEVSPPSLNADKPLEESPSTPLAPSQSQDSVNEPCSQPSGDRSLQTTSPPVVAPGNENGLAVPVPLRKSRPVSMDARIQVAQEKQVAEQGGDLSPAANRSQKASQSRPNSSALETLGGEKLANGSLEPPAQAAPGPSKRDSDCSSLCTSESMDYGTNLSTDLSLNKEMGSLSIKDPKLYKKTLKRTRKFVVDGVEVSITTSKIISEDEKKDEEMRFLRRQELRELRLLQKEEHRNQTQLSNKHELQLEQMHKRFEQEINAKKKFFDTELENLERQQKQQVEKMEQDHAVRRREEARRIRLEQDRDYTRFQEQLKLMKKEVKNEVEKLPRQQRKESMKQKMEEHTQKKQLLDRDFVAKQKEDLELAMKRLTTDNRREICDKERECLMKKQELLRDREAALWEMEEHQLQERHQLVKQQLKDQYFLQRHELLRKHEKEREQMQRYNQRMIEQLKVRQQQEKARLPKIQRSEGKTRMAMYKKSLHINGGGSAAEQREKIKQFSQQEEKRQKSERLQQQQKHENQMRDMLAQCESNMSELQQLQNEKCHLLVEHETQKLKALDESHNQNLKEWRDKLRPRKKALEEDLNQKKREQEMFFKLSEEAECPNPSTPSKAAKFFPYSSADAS
# T7 sequence (P68400 whole entry): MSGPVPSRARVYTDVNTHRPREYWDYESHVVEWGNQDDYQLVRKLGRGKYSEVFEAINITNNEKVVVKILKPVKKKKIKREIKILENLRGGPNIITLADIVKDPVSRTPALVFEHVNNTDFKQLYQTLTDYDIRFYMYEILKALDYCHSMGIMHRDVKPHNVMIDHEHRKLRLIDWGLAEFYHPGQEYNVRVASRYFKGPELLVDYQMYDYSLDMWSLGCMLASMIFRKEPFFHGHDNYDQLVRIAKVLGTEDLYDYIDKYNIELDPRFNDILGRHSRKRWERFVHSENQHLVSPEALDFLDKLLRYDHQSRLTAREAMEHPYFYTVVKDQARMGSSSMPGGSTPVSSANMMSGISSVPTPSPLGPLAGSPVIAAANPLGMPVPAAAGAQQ
# T8 sequence (P53667 whole entry): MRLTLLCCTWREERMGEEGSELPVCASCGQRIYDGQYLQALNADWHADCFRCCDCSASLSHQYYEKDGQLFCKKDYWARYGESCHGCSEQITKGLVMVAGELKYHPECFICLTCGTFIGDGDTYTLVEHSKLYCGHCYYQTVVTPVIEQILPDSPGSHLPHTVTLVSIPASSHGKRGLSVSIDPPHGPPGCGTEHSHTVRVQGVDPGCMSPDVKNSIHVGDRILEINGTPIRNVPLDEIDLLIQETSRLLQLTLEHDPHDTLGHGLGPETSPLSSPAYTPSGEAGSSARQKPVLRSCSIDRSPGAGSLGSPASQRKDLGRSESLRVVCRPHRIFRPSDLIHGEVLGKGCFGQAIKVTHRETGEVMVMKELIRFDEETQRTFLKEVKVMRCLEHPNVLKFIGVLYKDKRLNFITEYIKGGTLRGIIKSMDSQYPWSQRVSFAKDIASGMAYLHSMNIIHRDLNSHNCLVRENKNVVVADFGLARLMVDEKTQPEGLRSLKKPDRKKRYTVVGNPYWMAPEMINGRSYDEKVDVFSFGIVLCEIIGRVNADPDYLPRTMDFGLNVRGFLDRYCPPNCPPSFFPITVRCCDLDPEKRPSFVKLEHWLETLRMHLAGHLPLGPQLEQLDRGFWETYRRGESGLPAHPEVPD
# T6 sequence (Q16539 whole entry): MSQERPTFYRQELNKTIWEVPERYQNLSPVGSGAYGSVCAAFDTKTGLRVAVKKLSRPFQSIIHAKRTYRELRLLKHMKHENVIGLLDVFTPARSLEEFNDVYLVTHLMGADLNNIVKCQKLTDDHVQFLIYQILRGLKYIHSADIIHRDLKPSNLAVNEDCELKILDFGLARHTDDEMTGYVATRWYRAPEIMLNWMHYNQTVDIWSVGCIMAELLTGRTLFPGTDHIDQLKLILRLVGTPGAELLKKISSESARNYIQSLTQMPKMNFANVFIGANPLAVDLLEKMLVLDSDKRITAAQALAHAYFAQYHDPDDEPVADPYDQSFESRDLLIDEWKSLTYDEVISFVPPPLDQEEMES
smiles,measurement,setting,value
"COc1cc2ncnc(Nc3ccc(F)c(Cl)c3)c2cc1OCCCN1CCOCC1 [Iressa, Gefitinib, reference compound]",survivin protein expression,survivin [1],significantly inhibited surviving protein expression
same,remaining activity at 10 µM,MARK2 (PAR-1Ba),86%
same,average percentage of G1 fractions,A549 cells [2],76.1%
same,remaining activity at 10 µM,[3],9%
same,remaining activity at 10 µM,[4],30%
same,remaining activity at 10 µM,[5],19%
same,active form of caspase 3,caspase 3,did not induce any significant change of caspase 3 and PARP
same,remaining activity at 10 µM,[6],84%
same,cell growth of A549 cells,A549 cells [7],inhibit cell growth of A549 cells
same,viability at 10 µM,A549 cell line; 10 μM,86.7%
same,viability at 20 µM,A549 cell line; 20 μM,82.1%
same,viability at 40 µM,A549 cell line; 40 μM,74.3%
same,viability at 60 µM,A549 cell line; 60 μM,64.6%
same,viability at 80 µM,A549 cell line; 80 μM,60.8%
same,remaining activity at 10 µM,[8],20%
same,remaining activity at 10 µM,[9],92%
same,cleaved form of PARP,PARP,did not induce any significant change of caspase 3 and PARP
same,survivin gene expression,survivin [10],no significant change
same,viability at 24 h,[11],> 30%
same,average of total apoptosis,A549 cells [12],around 19.6%
same,remaining activity at 10 µM,[13],76%
same,remaining activity at 10 µM,[14],27%
